In PubChem BioAssay (NCI):
Several values for one entry are separate records, joined by “and”; a condition that tells them apart may be missing. Identical values can stand only once.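 Cultured in 96-well plates, cells were exposed to test compound for 48 hours across five concentrations. GI50 = concentration required for 50% inhibition of growth. Definition used: TGI = concentration required for complete inhibition of growth.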

What was measured:
Experiment in all cases: NCI anticancer screen, dose series, 48 h
786-0 renal = test system: 786-0 renal
A498 renal = test system: A498 renal
ACHN renal = test system: ACHN renal
CAKI-1 renal = test system: CAKI-1 renal
HOP-62 NSCLC = test system: HOP-62 NSCLC
HT29 colon = test system: HT29 colon
LOX IMVI melanoma = test system: LOX IMVI melanoma
NCI/ADR-RES ovarian = test system: NCI/ADR-RES ovarian
SF-295 CNS = test system: SF-295 CNS
SNB-75 CNS = test system: SNB-75 CNS
HS 578T breast = test system: HS 578T breast
MDA-N = test system: MDA-N

| SMILES | TGI (786-0 renal) | TGI (A498 renal) | TGI (ACHN renal) | TGI (CAKI-1 renal) | TGI (HOP-62 NSCLC) | TGI (HT29 colon) | TGI (LOX IMVI melanoma) | TGI (NCI/ADR-RES ovarian) | TGI (SF-295 CNS) | TGI (SNB-75 CNS) | TGI (HS 578T breast) | TGI (MDA-N) | GI50 (A498 renal) | GI50 (CAKI-1 renal) | GI50 (HOP-62 NSCLC) | GI50 (HT29 colon) | GI50 (LOX IMVI melanoma) | GI50 (SF-295 CNS) | GI50 (SNB-75 CNS) |
| --- | --- | --- | --- | --- | --- | --- | --- | --- | --- | --- | --- | --- | --- | --- | --- | --- | --- | --- | --- |
| CC(C)(C)NC1C2CCC(C)(C1O)C2(C)C (centres undefined) | > 100 µM | 5.19 µM | 21.6 µM | > 100 µM | > 100 µM | > 100 µM | > 100 µM | > 100 µM | > 100 µM | 26.2 µM |  |  |  |  |  |  |  |  |  |
| O=C1OC(c2ccccc2)N/C1=C\c1ccc2c(c1)OCO2 (centres undefined) | > 100 µM |  | > 100 µM | > 100 µM | > 100 µM | > 100 µM | > 100 µM | > 100 µM | > 100 µM | > 100 µM | > 100 µM | > 100 µM |  |  |  |  |  |  |  |
| CCNc1ncnc2n[nH]nc12 | > 100 µM | > 100 µM | > 100 µM | > 100 µM | > 100 µM | > 100 µM | > 100 µM | > 100 µM | > 100 µM | > 100 µM |  | > 100 µM |  |  |  |  |  |  |  |
| CCOC(=O)C1(Cc2ccccc2)Cc2ccccc2C1=O (centres undefined) | > 100 µM |  | > 100 µM |  | > 100 µM | 65.2 µM | > 100 µM | 62.8 µM | > 100 µM | > 100 µM | > 100 µM | 44.6 µM |  |  |  |  |  |  |  |
| COc1cc(/C=C(\C#N)c2ccccn2)cc(Br)c1O | > 100 µM |  | > 100 µM | > 100 µM | > 100 µM | > 100 µM |  | 75 µM | 83.2 µM | > 100 µM |  | > 100 µM |  |  |  |  |  |  |  |
| CCn1cnc2c(NC(C)=O)ncnc21 | > 100 µM |  | > 100 µM | > 100 µM | > 100 µM | > 100 µM | > 100 µM | > 100 µM | > 100 µM | > 100 µM |  | > 100 µM |  |  |  |  |  |  |  |
| COc1ccc(-c2nnc(CCCCCCCCc3nnc(-c4ccc(OC)cc4)o3)o2)cc1 | > 100 µM | > 100 µM | > 100 µM | > 100 µM | 74.2 µM | > 100 µM | > 100 µM | > 100 µM | > 100 µM | 93.6 µM |  | > 100 µM |  |  |  |  |  |  |  |
| CC(C)(O)[C@H](CCO)O[Si](c1ccccc1)(c1ccccc1)C(C)(C)C |  | 30.9 µM | 19.7 µM |  |  | 24.6 µM | 27.6 µM |  | 18.9 µM | 22.9 µM |  |  |  |  |  |  |  |  |  |
| COc1cc(C=O)c(-c2cc3c(cc2C=O)OCO3)c(OC)c1OC | > 290 µM |  | > 290 µM | > 290 µM | > 290 µM | 186 µM | > 290 µM |  | 219 µM |  |  |  |  |  |  |  |  |  |  |
| NC(CCCCNC(=O)C(Cc1ccccc1)NC(=O)OCc1ccccc1)C(=O)NC(CCCCNC(=O)C(Cc1ccccc1)NC(=O)OCc1ccccc1)C(=O)NC(CCCCNC(=O)C(Cc1ccccc1)NC(=O)OCc1ccccc1)C(=O)NC(CCCCNC(=O)C(Cc1ccccc1)NC(=O)OCc1ccccc1)C(=O)NC(CCCCNC(=O)C(Cc1ccccc1)NC(=O)OCc1ccccc1)C(=O)NC(CCCCNC(=O)C(Cc1ccccc1)NC(=O)OCc1ccccc1)C(=O)O (centres undefined) | > 100 µM |  | > 100 µM | > 100 µM | > 100 µM | > 100 µM | > 100 µM |  |  | > 100 µM |  | > 100 µM |  |  |  |  |  |  |  |
| CC1=NN(C(=O)Cc2ccccc2)C(=O)/C1=C\c1ccco1 | > 100 µM |  | > 100 µM | > 100 µM | > 100 µM | > 100 µM | > 100 µM |  | > 100 µM | > 100 µM |  |  |  |  |  |  |  |  |  |
| CN(C(=O)c1cccs1)C(=S)N1CCN(c2ccccc2)CC1 | > 100 µM |  | > 100 µM |  |  | > 100 µM | > 100 µM |  | > 100 µM | > 100 µM | > 100 µM | > 100 µM |  |  |  |  |  |  |  |
| COc1cc([C@@H]2c3cc4c(c(O)c3C[C@H]3COC(=O)[C@@H]32)OCO4)cc(OC)c1O |  | 0.0046 µM and < 0.02 µM |  | < 0.02 µM | > 200 µM | 1.53 µM | > 200 µM |  | < 0.02 µM | > 78.6 µM |  |  | 0.00144 µM | 0.00611 µM | 0.00487 µM | 0.0182 µM | 0.00394 µM and 0.0367 µM | 0.00304 µM | 0.00421 µM |
| CC1(C)C2CCC1(CC(=O)O)C(Cl)C2 (centres undefined) | > 100 µM | > 100 µM | > 100 µM | > 100 µM | > 100 µM | > 100 µM | > 100 µM | > 100 µM | > 100 µM | > 100 µM | > 100 µM |  |  |  |  |  |  |  |  |
| C[C@@H]1OC(=O)/C(=C\N(C)C)[C@H]2CC(=O)N(CCc3cn(S(=O)(=O)C(F)(F)F)c4ccccc34)C[C@H]12 | > 100 µM | > 100 µM | > 100 µM | > 100 µM | > 100 µM |  | > 100 µM | > 100 µM | > 100 µM | > 100 µM |  | > 100 µM |  |  |  |  |  |  |  |
| CCOC(=O)c1cc(-c2ccc(Cl)cc2)c([N+](=O)[O-])n1C | > 10 µM |  | > 10 µM |  |  | > 10 µM |  |  | > 10 µM |  | > 10 µM | > 10 µM |  |  |  |  |  |  |  |
| Cc1cc(NCCCCCCNc2cc(C)nc3ccc(Cl)cc23)c2cc(Cl)ccc2n1 | 32 µM | > 100 µM | > 100 µM | > 100 µM | > 100 µM | 33.5 µM | 28.7 µM |  | 31.2 µM | 35.5 µM |  |  |  |  |  |  |  |  |  |
| C[C@]12CCC(=O)C=C1CC[C@@H]1C2CC[C@]2(C)Nc3c(ncn3-c3ccc(F)cc3)CC12 (some centres undefined) | > 100 µM | > 100 µM | > 100 µM | > 100 µM | > 100 µM | > 100 µM |  |  | 45.3 µM | 77.4 µM | 71 µM | 42.8 µM |  |  |  |  |  |  |  |
| c1ccc2c(c1)C(=Nc1ccc(N=C3c4ccccc4-c4ccccc43)cc1)c1ccccc1-2 | > 100 µM | > 100 µM |  | > 100 µM | > 100 µM | > 100 µM | > 100 µM | > 100 µM | > 100 µM |  | > 100 µM | > 100 µM |  |  |  |  |  |  |  |
| COC(=O)NN1C(=O)C(=P(c2ccccc2)(c2ccccc2)c2ccccc2)C(C(=O)OC)=C1C |  | > 100 µM | > 100 µM | > 100 µM |  | > 100 µM | > 100 µM |  | > 100 µM | > 100 µM |  |  |  |  |  |  |  |  |  |
| COc1ccc([C@@H]2CC(=O)NCCCCNCCCN2)cc1 | > 100 µM | > 100 µM | > 100 µM | > 100 µM | > 100 µM | > 100 µM |  |  | > 100 µM | > 100 µM |  |  |  |  |  |  |  |  |  |
